Data from patent US20230085307A1, “PYRIDAZINONE COMPOUND AND HERBICIDE” (NISSAN CHEMICAL CORPORATION, priority 2019, published 2023).

Columns and labels:
wild oat [1] = assay: Test Example 4: herbicidal effect by soil treatment (Table 19, symbol I); assay type: in vivo, wild oat (Avena fatua); details: amount of applied herbicide 320 g/ha
Outline: (§1)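 Soil-surface application: an emulsion agent diluted with water to the predetermined dose is sprayed uniformly over seeds lying under roughly 1.5 cm of sterilized diluvial soil. Boxes stay in a greenhouse at 25° C. to 30° C. Three weeks later, each species is graded on previously defined criteria.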

redroot pigweed [2] = assay: Test Example 4: herbicidal effect by soil treatment (Table 19, symbol N); assay type: in vivo, redroot pigweed (Amaranthus retroflexus); details: amount of applied herbicide 320 g/ha
Outline: as §1

velvetleaf [3] = assay: Test Example 4: herbicidal effect by soil treatment (Table 19, symbol M); assay type: in vivo, velvetleaf (Abutilon theophrasti); details: amount of applied herbicide 320 g/ha
Outline: as §1

Italian ryegrass [4] = assay: Test Example 4: herbicidal effect by soil treatment (Table 19, symbol K); assay type: in vivo, Italian ryegrass (Lolium multiflorum); details: amount of applied herbicide 320 g/ha
Outline: as §1

blackgrass [5] = assay: Test Example 4: herbicidal effect by soil treatment (Table 19, symbol J); assay type: in vivo, blackgrass (Alopecurus myosuroides); details: amount of applied herbicide 320 g/ha
Outline: as §1

redroot pigweed [6] = assay: Test Example 5: herbicidal effect by foliage application, plastic box (Table 20, symbol N); assay type: in vivo, redroot pigweed (Amaranthus retroflexus); details: foliage application, 320 g/ha, evaluated three weeks after application
Outline: (§2)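 Sow seeds spot-wise in sterilized diluvial soil; cover with ~1.5 cm soil. Grow 14 days in greenhouse, 25° C. to 30° C. Spray foliage with emulsion diluted to predetermined amount. Rate effect after 3 weeks.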

southern crabgrass [7] = assay: Test Example 4: herbicidal effect by soil treatment (Table 19, symbol F); assay type: in vivo, southern crabgrass (Digitaria ciliaris); details: amount of applied herbicide 320 g/ha
Outline: as §1

windgrass [8] = assay: Test Example 5: herbicidal effect by foliage application, plastic box (Table 20, symbol L); assay type: in vivo, windgrass (Apera spica-venti); details: foliage application, 320 g/ha, evaluated three weeks after application
Outline: as §2

green foxtail [9] = assay: Test Example 5: herbicidal effect by foliage application, plastic box (Table 20, symbol G); assay type: in vivo, green foxtail (Setaria viridis); details: foliage application, 320 g/ha, evaluated three weeks after application
Outline: as §2

barnyard grass [10] = assay: Test Example 4: herbicidal effect by soil treatment (Table 19, symbol H); assay type: in vivo, barnyard grass (Echinochloa crus-galli); details: amount of applied herbicide 320 g/ha
Outline: as §1

blackgrass [11] = assay: Test Example 5: herbicidal effect by foliage application, plastic box (Table 20, symbol J); assay type: in vivo, blackgrass (Alopecurus myosuroides); details: foliage application, 320 g/ha, evaluated three weeks after application
Outline: as §2

lambsquarters [12] = assay: Test Example 5: herbicidal effect by foliage application, plastic box (Table 20, symbol O); assay type: in vivo, lambsquarters (Chenopodium album); details: foliage application, 320 g/ha, evaluated three weeks after application
Outline: as §2

velvetleaf [13] = assay: Test Example 5: herbicidal effect by foliage application, plastic box (Table 20, symbol M); assay type: in vivo, velvetleaf (Abutilon theophrasti); details: foliage application, 320 g/ha, evaluated three weeks after application
Outline: as §2

chickweed [14] = assay: Test Example 4: herbicidal effect by soil treatment (Table 19, symbol P); assay type: in vivo, common chickweed (Stellaria media); details: amount of applied herbicide 320 g/ha
Outline: as §1

persian speedwell [15] = assay: Test Example 5: herbicidal effect by foliage application, plastic box (Table 20, symbol R); assay type: in vivo, Persian speedwell (Veronica persica); details: foliage application, 320 g/ha, evaluated three weeks after application
Outline: as §2

chickweed [16] = assay: Test Example 5: herbicidal effect by foliage application, plastic box (Table 20, symbol P); assay type: in vivo, common chickweed (Stellaria media); details: foliage application, 320 g/ha, evaluated three weeks after application
Outline: as §2

lambsquarters [17] = assay: Test Example 4: herbicidal effect by soil treatment (Table 19, symbol O); assay type: in vivo, lambsquarters (Chenopodium album); details: amount of applied herbicide 320 g/ha
Outline: as §1

green foxtail [18] = assay: Test Example 4: herbicidal effect by soil treatment (Table 19, symbol G); assay type: in vivo, green foxtail (Setaria viridis); details: amount of applied herbicide 320 g/ha
Outline: as §1

windgrass [19] = assay: Test Example 4: herbicidal effect by soil treatment (Table 19, symbol L); assay type: in vivo, windgrass (Apera spica-venti); details: amount of applied herbicide 320 g/ha
Outline: as §1

persian speedwell [20] = assay: Test Example 4: herbicidal effect by soil treatment (Table 19, symbol R); assay type: in vivo, Persian speedwell (Veronica persica); details: amount of applied herbicide 320 g/ha
Outline: as §1

barnyard grass [21] = assay: Test Example 5: herbicidal effect by foliage application, plastic box (Table 20, symbol H); assay type: in vivo, barnyard grass (Echinochloa crus-galli); details: foliage application, 320 g/ha, evaluated three weeks after application
Outline: as §2

southern crabgrass [22] = assay: Test Example 5: herbicidal effect by foliage application, plastic box (Table 20, symbol F); assay type: in vivo, southern crabgrass (Digitaria ciliaris); details: foliage application, 320 g/ha, evaluated three weeks after application
Outline: as §2

wild oat [23] = assay: Test Example 5: herbicidal effect by foliage application, plastic box (Table 20, symbol I); assay type: in vivo, wild oat (Avena fatua); details: foliage application, 320 g/ha, evaluated three weeks after application
Outline: as §2

Italian ryegrass [24] = assay: Test Example 5: herbicidal effect by foliage application, plastic box (Table 20, symbol K); assay type: in vivo, Italian ryegrass (Lolium multiflorum); details: foliage application, 320 g/ha, evaluated three weeks after application
Outline: as §2

| Compound | I: wild oat, herbicidal effect rating (wild oat [1]) | N: redroot pigweed, herbicidal effect rating (redroot pigweed [2]) | M: velvetleaf, herbicidal effect rating (velvetleaf [3]) | K: Italian ryegrass, herbicidal effect rating (Italian ryegrass [4]) | J: blackgrass, herbicidal effect rating (blackgrass [5]) | F: southern crabgrass, herbicidal effect rating (southern crabgrass [7]) | H: barnyard grass, herbicidal effect rating (barnyard grass [10]) | P: chickweed, herbicidal effect rating (chickweed [14]) | O: lambsquarters, herbicidal effect rating (lambsquarters [17]) | G: green foxtail, herbicidal effect rating (green foxtail [18]) | L: windgrass, herbicidal effect rating (windgrass [19]) | R: persian speedwell, herbicidal effect rating (persian speedwell [20]) | other results |
| --- | --- | --- | --- | --- | --- | --- | --- | --- | --- | --- | --- | --- | --- |
| CCCC(=O)Oc1c(C)nn(C)c(=O)c1-c1c(-c2ccc(OC)cc2)sc2ccc(C)cc12 [2-141] | 0 (Herbicidal rate of 5% or less (almost no effect)) | 0 (Herbicidal rate of 5% or less (almost no effect)) | 0 (Herbicidal rate of 5% or less (almost no effect)) | 0 (Herbicidal rate of 5% or less (almost no effect)) | 0 (Herbicidal rate of 5% or less (almost no effect)) | 0 (Herbicidal rate of 5% or less (almost no effect)) | 0 (Herbicidal rate of 5% or less (almost no effect)) | 0 (Herbicidal rate of 5% or less (almost no effect)) | 0 (Herbicidal rate of 5% or less (almost no effect)) | 0 (Herbicidal rate of 5% or less (almost no effect)) | 0 (Herbicidal rate of 5% or less (almost no effect)) | 2 (Herbicidal rate of 20% or more and less than 40%) | herbicidal effect on N: redroot pigweed (criteria 0-5) (redroot pigweed [6]): 0 (Herbicidal rate of 5% or less (almost no effect)); herbicidal effect on L: windgrass (criteria 0-5) (windgrass [8]): 0 (Herbicidal rate of 5% or less (almost no effect)); herbicidal effect on G: green foxtail (criteria 0-5) (green foxtail [9]): 0 (Herbicidal rate of 5% or less (almost no effect)); herbicidal effect on J: blackgrass (criteria 0-5) (blackgrass [11]): 0 (Herbicidal rate of 5% or less (almost no effect)); herbicidal effect on O: lambsquarters (criteria 0-5) (lambsquarters [12]): 0 (Herbicidal rate of 5% or less (almost no effect)); herbicidal effect on M: velvetleaf (criteria 0-5) (velvetleaf [13]): 0 (Herbicidal rate of 5% or less (almost no effect)); herbicidal effect on R: persian speedwell (criteria 0-5) (persian speedwell [15]): 5 (Herbicidal rate of 90% or more (almost completely withered)); herbicidal effect on P: chickweed (criteria 0-5) (chickweed [16]): 5 (Herbicidal rate of 90% or more (almost completely withered)); herbicidal effect on H: barnyard grass (criteria 0-5) (barnyard grass [21]): 0 (Herbicidal rate of 5% or less (almost no effect)); herbicidal effect on F: southern crabgrass (criteria 0-5) (southern crabgrass [22]): 0 (Herbicidal rate of 5% or less (almost no effect)); herbicidal effect on I: wild oat (criteria 0-5) (wild oat [23]): 0 (Herbicidal rate of 5% or less (almost no effect)); herbicidal effect on K: Italian ryegrass (criteria 0-5) (Italian ryegrass [24]): 0 (Herbicidal rate of 5% or less (almost no effect)) |
| COc1ccc(-c2sc3ccc(C)cc3c2-c2c(O)c(C)nn(C)c2=O)cc1 [2-140] | 0 (Herbicidal rate of 5% or less (almost no effect)) | 2 (Herbicidal rate of 20% or more and less than 40%) | 3 (Herbicidal rate of 40% or more and less than 70%) | 0 (Herbicidal rate of 5% or less (almost no effect)) | 0 (Herbicidal rate of 5% or less (almost no effect)) | 0 (Herbicidal rate of 5% or less (almost no effect)) | 0 (Herbicidal rate of 5% or less (almost no effect)) | 0 (Herbicidal rate of 5% or less (almost no effect)) | 0 (Herbicidal rate of 5% or less (almost no effect)) | 0 (Herbicidal rate of 5% or less (almost no effect)) | 0 (Herbicidal rate of 5% or less (almost no effect)) | 3 (Herbicidal rate of 40% or more and less than 70%) | herbicidal effect on N: redroot pigweed (redroot pigweed [6]): 3 (Herbicidal rate of 40% or more and less than 70%); herbicidal effect on L: windgrass (windgrass [8]): 0 (Herbicidal rate of 5% or less (almost no effect)); herbicidal effect on G: green foxtail (green foxtail [9]): 0 (Herbicidal rate of 5% or less (almost no effect)); herbicidal effect on J: blackgrass (blackgrass [11]): 0 (Herbicidal rate of 5% or less (almost no effect)); herbicidal effect on O: lambsquarters (lambsquarters [12]): 3 (Herbicidal rate of 40% or more and less than 70%); herbicidal effect on M: velvetleaf (velvetleaf [13]): 4 (Herbicidal rate of 70% or more and less than 90%); herbicidal effect on R: persian speedwell (persian speedwell [15]): 5 (Herbicidal rate of 90% or more (almost completely withered)); herbicidal effect on P: chickweed (chickweed [16]): 4 (Herbicidal rate of 70% or more and less than 90%); herbicidal effect on H: barnyard grass (barnyard grass [21]): 0 (Herbicidal rate of 5% or less (almost no effect)); herbicidal effect on F: southern crabgrass (southern crabgrass [22]): 0 (Herbicidal rate of 5% or less (almost no effect)); herbicidal effect on I: wild oat (wild oat [23]): 0 (Herbicidal rate of 5% or less (almost no effect)); herbicidal effect on K: Italian ryegrass (Italian ryegrass [24]): 0 (Herbicidal rate of 5% or less (almost no effect)) |
